Assay results reported in ChEMBL document CHEMBL1122717, “Oxidation of sparteines by cytochrome P-450: evidence against the formation of N-oxides” (J Med Chem, 1984).

Species on record: Rattus norvegicus
Assay: Compound was evaluated for percent inhibition of antiarrhythmic activity catalyzed by cytochrome P-450 UT-H in liver microsomes of rats
Type: functional
Settings: dose or concentration not given here

Work on C1CCN2C[C@@H]3C[C@@H](CN4CCCC[C@@H]34)[C@H]2C1 yielded an inhibition of over 95%.
